Patent publication US6235707A, “Anticoagulant peptidyl-arginine aldehyde derivatives” (Gyogyszerkutato Intezet Kft., priority 1996, dated 2001)
Like-named read-outs stand apart in the source and are kept apart here.

Experiments:
[1] = target: tissue plasminogen activator (tPA) (Homo sapiens, UniProt P00750); assay: fibrin-plate method, plasmin formation induced by tPA; type: biochemical
Source text: The inhibitory effect of the new compounds of the invention on plasmin (PL) as well as on plasmin formation induced by tissue plasminogen activator (tPA) and urokinase (UK) was examined by the fibrin-plate method [D. Bagdy et al.: Thromb. Haemost. 67, 325 (1992)]. Compounds C1 and C5 served as controls. […] V. Jackson et al.: J. Cardiovasc. Pharmacol. 21, 587 (1993))]. In Table 4 the results obtained with the new compounds 1 and 2 as well as those with controls C1 and C5 are presented as an example.

[2] = target: T1, clot-bound thrombin (Homo sapiens, UniProt P00734); assay: inhibition of plasma clot-bound thrombin (Methods M1, M3); type: biochemical; settings: clot from platelet-rich human plasma; Tos-Gly-Pro-Arg-pNA substrate
T1 construct: from tissue; host or cells: clot of recalcified human platelet-rich plasma
Procedure: Plasma-clot was obtained by recalcificating platelet-rich human plasma, and fibrin gel by clotting human fibrinogen with human thrombin. For the activity measures of fXa and thrombin Z-D-Arg-Gly-Arg-pNA or Tos-Gly-Pro-Arg-pNA substrates were used in agreement with Methods M1-M3.
Preparation of Clots from Human Plasma
a) Platelet-rich plasma is prepared by centrifuging a 9:1 mixture of human blood and 3.8% sodium citrate solution for 5 min. at 240×g.
b) 200 μl platelet-rich plasma and 80 μl 40 mM CaCl2 solution are allowed to stand at room temperature for 1 hour. The thus-formed clot is washed with 6×2 ml of 0.9% NaCl solution with gentle stirring to remove the residual enzymes (thrombin and factor Xa). The washing medium is assayed for thrombin-like activity as follows:
c) To 400 μl of washing medium 100 μl of 1 mM Tos-Gly-Pro-Arg-pNA substrate solution is added, the mixture is incubated for 30 min at 37° C., then the reaction is stopped with 100 μl of 50% acetic acid. From this mixture 150 μl aliquots are applied onto a 96-well microtitre plate and the extinction coefficients are measured at 405 nm (ELISA READER SLT Laborinstrument GmbH, Austria). In case of efficient washing the extinction coefficient is smaller than 5% of that of the control.
Determination of the Inhibition of Clot-bound Thrombin
a) Solutions are made from the peptide inhibitors according to Method M2/a.
b) After draining off the washing medium the clots (Method M1) are mixed with 400 μl of peptide solution (3 parallel samples with each concentration), then the samples are incubated for 5 min. at 37° C. together with a separate 400 μl buffer serving as control. Then 100 μl […] 1 mM Tos-Gly-Pro-Arg-pNA substrate solution is added and the incubation continued for further 30 min. at 37° C. The experiment is continued according to M2/c.

[3] = tested on: New Zealand white rabbits; assay: ex vivo APTT in citrate plasma of rabbits after p.o. dosing; parameters: species or system rabbit; settings: p.o. 5 mg/kg
Procedure: (§1) The anticoagulant and platelet aggregation inhibiting effect of the compounds of general formula (I) was studied in New Zealand white rabbits ex vivo according to D. Bagdy et al. [Thromb. Haemost. 67, 357 (1992)]. The compounds were dissolved in buffered isotonic saline solution and administered i.v. (0,04-5.0 mg/kg) or by infusion (0.25-5.0 mg/kg/h) or subcutaneously (0.5-6.0 mg/kg) or p.o. (2.5-20 mg/kg). The effect of the compounds was detectable already within 30 minutes following p.o. administration, peak values were attained after 60-180 minutes and the therapeutic level was maintained dose-dependently for 3→6 hours.
(§2) The in vivo effect of ethoxycarbonyl-3-cyclobutyl-D-alanyl-L-prolyl-L-arginine aldehyde (1) is presented in detail in Tables 6 and 7. The corresponding values of C1 are listed as controls. The compound was administered p.o. in doses of 5 mg/kg. The blood samples drawn from the caudal vein in every 30-60 minutes were analysed. The whole blood clotting time (WBCT) and the inhibition of thrombin-induced blood platelet aggregation (PAI) were determined. The activated partial thromboplastin time (APTT) and the thrombin time (TT) in the citrate plasma obtained from the blood sample were also measured. The APTT and TT values are compiled in Table 6 and the WBCT and PAI values in Table 7.

[4] = tested on: New Zealand white rabbits; assay: ex vivo whole blood clotting time (WBCT) in rabbits after p.o. dosing; parameters: species or system rabbit; settings: p.o. 5 mg/kg
Procedure: as §1, §2

[5] = tested on: thrombin-induced blood platelet aggregation; assay: ex vivo inhibition of thrombin-induced blood platelet aggregation (PAI) in rabbits after p.o. dosing; parameters: species or system rabbit; settings: Oryctolagus cuniculus, Platelet, po, p.o. 5 mg/kg, read-out: PAI (%), percentual inhibition of platelet aggregation
Procedure: as §1, §2

[6] = tested on: New Zealand white rabbits; assay: anticoagulant and platelet aggregation inhibiting effect in rabbits ex vivo, time course; parameters: species or system rabbit; settings: p.o. 5 mg/kg
Procedure: as §1, §2

tissue plasminogen activator (tPA), sequence (P00750 36-562, species assumed): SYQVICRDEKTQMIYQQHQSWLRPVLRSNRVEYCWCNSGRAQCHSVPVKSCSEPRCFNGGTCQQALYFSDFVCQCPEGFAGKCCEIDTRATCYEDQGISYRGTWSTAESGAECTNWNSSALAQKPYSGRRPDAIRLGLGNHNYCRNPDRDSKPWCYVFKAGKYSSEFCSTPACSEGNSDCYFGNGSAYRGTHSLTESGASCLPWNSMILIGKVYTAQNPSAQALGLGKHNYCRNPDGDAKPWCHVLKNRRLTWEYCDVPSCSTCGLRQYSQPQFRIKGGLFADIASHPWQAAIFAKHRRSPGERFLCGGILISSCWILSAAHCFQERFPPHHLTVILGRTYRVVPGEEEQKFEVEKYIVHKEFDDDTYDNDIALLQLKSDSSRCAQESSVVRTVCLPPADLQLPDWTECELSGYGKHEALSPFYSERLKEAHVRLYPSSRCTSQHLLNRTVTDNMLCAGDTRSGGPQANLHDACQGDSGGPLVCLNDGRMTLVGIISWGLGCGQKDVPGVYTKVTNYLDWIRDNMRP

CCOC(=O)N[C@H](CC1CCC1)C(=O)N1CCC[C@H]1C(=O)N[C@H](C=O)CCCNC(=N)N [Example 1, Ethoxycarbonyl-3-cyclobutyl-D-alanyl-L-prolyl-L-arginine aldehyde]
IC50 ([1]; fibrin plate, hydrolysed area reduced to 50% of control): 27 µM | B: relative efficiency, tPA ([1]; related to the activity of C1 (1/IC50 = 1)): 4.9 | activity against tPA, times lower than that of compound C5 ([1]; text b147, second of three enzymes): 4.5 times | IC50 [2]: 0.39 µM | APTT relative clotting time ([3]; 0 min): 1.0 | APTT relative clotting time ([3]; 30 min): 1.73 ± 0.47 | APTT relative clotting time ([3]; 45 min): 1.84 ± 0.50 | APTT relative clotting time ([3]; 60 min): 1.94 ± 0.51 | APTT relative clotting time ([3]; 90 min): 1.92 ± 0.31 | APTT relative clotting time ([3]; 120 min): 1.75 ± 0.26 | APTT relative clotting time ([3]; 180 min): 1.59 ± 0.12 | APTT relative clotting time ([3]; 240 min): 1.38 ± 0.08 | APTT relative clotting time ([3]; 300 min): 1.28 ± 0.08 | WBCT relative clotting time ([4]; 0 min): 1.0 | WBCT relative clotting time ([4]; 30 min): 1.52 ± 0.22 | WBCT relative clotting time ([4]; 45 min): 1.58 ± 0.17 | WBCT relative clotting time ([4]; 60 min): 1.88 ± 0.45 | WBCT relative clotting time ([4]; 90 min): 1.73 ± 0.33 | WBCT relative clotting time ([4]; 120 min): 1.98 ± 0.30 | WBCT relative clotting time ([4]; 180 min): 1.43 ± 0.13 | WBCT relative clotting time ([4]; 240 min): 1.12 ± 0.24 | WBCT relative clotting time ([4]; 300 min): 1.18 ± 0.08 | inhibition at 5 mg/kg ([5]; 0 h, 0 min): 1% | inhibition at 5 mg/kg ([5]; 0.5 h, 30 min): 71.3 ± 16.6% | inhibition at 5 mg/kg ([5]; 0.75 h, 45 min): 55.8 ± 17.4% | inhibition at 5 mg/kg ([5]; 1 h, 60 min): 63.8 ± 21.2% | inhibition at 5 mg/kg ([5]; 1.5 h, 90 min): 85.6 ± 10% | inhibition at 5 mg/kg ([5]; 2 h, 120 min): 73.6 ± 19.1% | inhibition at 5 mg/kg ([5]; 3 h, 180 min): 81.8 ± 11.6% | inhibition at 5 mg/kg ([5]; 4 h, 240 min): 59.4 ± 19.1% | inhibition at 5 mg/kg ([5]; 5 h, 300 min): 75.8 ± 11.8% | duration of anticoagulant and antiaggregation effect compared to control C1 [6]: longer-lasting
